pIC50: −log10 of the molar value. Read-outs that look alike come from different tables or passages of the source.
Key:
[1] = Metabolic stability in vitro, human liver microsomes (calculation of Fmax); format: in vitro ADME; conditions: maximal oral bioavailability calculated from microsomal half-life, 1 μM
Protocol: (§1) The metabolic stability of test compounds in vitro was determined by incubating them at 1 μM with a suspension liver microsomes in 100 mM phosphate buffer, pH7.4 (NaH2PO4×H2O+Na2HPO4×2H2O) at a protein concentration of 0.5 mg/mL and at 37° C. The reaction was activated by adding a co-factor mix containing 1.2 mg NADP, 3 IU glucose-6-phosphate dehydrogenase, 14.6 mg glucose-6-phosphate and 4.9 mg MgCl2 in phosphate buffer, pH 7.4. Organic solvent in the incubations was limited to <0.2% dimethylsulfoxide (DMSO) and <1% methanol. During incubation, the microsomal suspensions were continuously shaken and aliquots were taken at 2, 8, 16, 30, 45 and 60 min, to which equal volumes of cold methanol were immediately added. Samples were frozen at −20° C. over night, subsequently centrifuged for 15 minutes at 3000 rpm and the supernatant was analyzed with an Agilent 1200 HPLC-system with LCMS/MS detection.
(§2) The half-life of a test compound was determined from the concentration-time plot. From the half-life the intrinsic clearances were calculated. Together with the additional parameters liver blood flow, specific liver weight and microsomal protein content the hepatic in vivo blood clearance (CL) and the maximal oral bioavailability (Fmax) were calculated for the different species. The following parameter values were used: Liver blood flow—1.3 L/h/kg (human), 2.1 L/h/kg (dog), 4.2 L/h/kg (rat); specific liver weight—21 g/kg (human), 39 g/kg (dog), 32 g/kg (rat); microsomal protein content—40 mg/g.
(§3) With the described assay only phase-I metabolism of microsomes is reflected, e.g. typically oxidoreductive reactions by cytochrome P450 enzymes and flavin mono-oxygenases (FMO) and hydrolytic reactions by esterases (esters and amides).

[2] = Metabolic stability in vitro, dog liver microsomes (calculation of Fmax); format: in vitro ADME; conditions: maximal oral bioavailability calculated from microsomal half-life, 1 μM
Protocol: as §1, §2, §3

[3] = biological target: human kinase Mps-1 (Homo sapiens (Human), UniProt P33981); test: Mps-1 kinase assay (TR-FRET); format: biochemical
[4] = Metabolic stability in vitro, rat liver microsomes (calculation of Fmax); format: in vitro ADME; conditions: maximal oral bioavailability calculated from microsomal half-life, 1 μM
Protocol: as §1, §2, §3

[5] = test system: HeLa human cervical tumor cells; test: HeLa cell proliferation assay (crystal violet); format: cell-based; conditions: 96 h, 4 days incubation, read-out: Inhibition of cell proliferation, cell Line: HeLa IC50
[6] = read-out: Mps-1 Inhibition, IC50 (Assay with 10 μM ATP), 10 μM ATP
[7] = read-out: Mps-1 Inhibition, IC50 (Assay with 2 mM ATP), 2 mM ATP

human kinase Mps-1, sequence (P33981 whole entry): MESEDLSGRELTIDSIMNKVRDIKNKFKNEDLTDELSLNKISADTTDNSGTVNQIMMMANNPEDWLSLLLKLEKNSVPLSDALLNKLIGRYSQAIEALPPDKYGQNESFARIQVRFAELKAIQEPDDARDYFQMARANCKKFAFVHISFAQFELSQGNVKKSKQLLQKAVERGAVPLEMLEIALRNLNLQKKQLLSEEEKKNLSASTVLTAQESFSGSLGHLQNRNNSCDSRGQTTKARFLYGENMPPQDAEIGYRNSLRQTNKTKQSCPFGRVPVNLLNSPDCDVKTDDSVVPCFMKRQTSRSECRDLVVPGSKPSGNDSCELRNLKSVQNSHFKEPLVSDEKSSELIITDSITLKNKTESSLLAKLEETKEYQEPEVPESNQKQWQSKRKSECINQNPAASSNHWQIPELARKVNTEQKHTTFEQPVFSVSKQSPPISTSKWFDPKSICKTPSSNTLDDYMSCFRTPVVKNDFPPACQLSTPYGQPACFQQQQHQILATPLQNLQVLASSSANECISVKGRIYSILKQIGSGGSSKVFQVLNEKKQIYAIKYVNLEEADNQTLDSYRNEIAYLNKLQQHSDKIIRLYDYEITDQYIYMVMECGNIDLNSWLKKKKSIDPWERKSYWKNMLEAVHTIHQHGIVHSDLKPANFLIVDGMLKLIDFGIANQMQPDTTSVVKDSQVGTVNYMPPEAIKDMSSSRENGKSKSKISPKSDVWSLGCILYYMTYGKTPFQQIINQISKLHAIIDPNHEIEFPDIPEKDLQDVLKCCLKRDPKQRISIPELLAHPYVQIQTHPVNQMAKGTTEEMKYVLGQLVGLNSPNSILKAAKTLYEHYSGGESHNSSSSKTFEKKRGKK

Compound	Human liver microsomes; Fmax [%] [1] [%]	Dog liver microsomes; Fmax [%] [2] [%]	pIC50 [3, 6]	pIC50 [3, 7]	Rat liver microsomes; Fmax [%] [4] [%]	pIC50 [5]	pIC50 ([3]; 2 mM ATP)
C[C@@H](C(=O)Nc1ccc(-c2ccc3nc(Nc4ccc(S(C)(=O)=O)cc4OCC(F)(F)F)nn3c2)cc1)c1ccc(F)cc1 [Example 01.03, (2R)-2-(4-fluorophenyl)-N-[4-(2-{[4-(methylsulfonyl)-2-(2,2,2-trifluoro-ethoxy)phenyl]amino}[1,2,4]triazolo[1,5-a]pyridin-6-yl)phenyl]-propanamide]	>95	55	> 9.00	> 9.00	93	–	–
COc1cc(C(=O)N2CCOCC2)ccc1Nc1nc2ccc(-c3ccc(NC(=O)Cc4ccc(F)cc4)cc3)cn2n1 [reference compound]	–	–	–	–	48	–	–
COc1cc(N2CCOC2=O)ccc1Nc1nc2ccc(-c3ccc(NC(=O)[C@H](C)c4ccc(F)cc4)cc3)cn2n1 [Example 01.09, (2R)-2-(4-fluorophenyl)-N-[4-(2-{[2-methoxy-4-(2-oxo-1,3-oxazolidin-3-yl)phenyl]amino}[1,2,4]triazolo[1,5-a]pyridin-6-yl)phenyl]propanamide]	49	48	–	–	58	–	–
COc1cc(C(=O)NCC(F)(F)F)ccc1Nc1nc2ccc(-c3ccc(NC(=O)Cc4ccc(F)cc4)cc3)cn2n1 [reference compound]	–	40	–	–	–	–	–
N#Cc1ccccc1Nc1nc2ccc(-c3ccc(NC(=O)Cc4ccc(F)cc4)cc3)cn2n1 [reference compound]	–	–	–	–	40	–	–
COC(C(=O)Nc1ccc(-c2ccc3nc(Nc4ccccc4C#N)nn3c2)cc1)c1ccccc1 (centres unmarked) [reference compound]	–	–	–	–	19	–	–
CCOc1cc(S(C)(=O)=O)ccc1Nc1nc2ccc(-c3ccc(NC(=O)[C@H](C)c4ccc(F)cc4)cc3)cn2n1 [Example01.02, (2R)—N-[4-(2-{[2-ethoxy-4-(methylsulfonyl)phenyl]amino}[1,2,4]-triazolo[1,5-a]pyridin-6-yl)phenyl]-2-(4-fluorophenyl)propanamide]	68	73	> 9.00	> 9.00	86	> 6.22	–
COc1cc(C(=O)NCC(F)(F)F)ccc1Nc1nc2ccc(-c3ccc(NC(=O)[C@H](C)c4ccc(F)cc4)cc3)cn2n1 [Example 01.04, 4-{[6-(4-{[(2R)-2-(4-fluorophenyl)propanoyl]amino}phenyl)[1,2,4]-triazolo[1,5-a]pyridin-2-yl]amino}-3-methoxy-N-(2,2,2-trifluoro-ethyl)benzamide]	>95	94	> 9.00	–	87	> 6.40	8.70
CCOc1cc(S(C)(=O)=O)ccc1Nc1nc2ccc(-c3ccc(C(=O)NCc4ccc(F)cc4)c(C)c3)cn2n1 [reference compound]	–	12	–	–	–	–	–
COc1cc(S(C)(=O)=O)ccc1Nc1nc2ccc(-c3ccc(NC(=O)[C@H](C)c4ccc(F)cc4)cc3)cn2n1 [Example 01.01, (2R)-2-(4-fluorophenyl)-N-[4-(2-{[2-methoxy-4-(methylsulfonyl)phenyl]-amino}[1,2,4]triazolo[1,5-a]pyridin-6-yl)phenyl]propanamide]	92	64	–	–	92	> 6.40	–
CS(=O)(=O)c1ccc(Nc2nc3ccc(-c4ccc(NC(=O)Cc5ccc(F)cc5)cc4)cn3n2)c(OCC(F)(F)F)c1 [reference compound]	–	25	–	–	–	–	–
N#Cc1c(F)cccc1Nc1nc2ccc(-c3ccc(NC(=O)Cc4ccc(F)cc4)cc3)cn2n1 [reference compound]	–	15	–	–	–	–	–
COc1cc(N2CCOC2=O)ccc1Nc1nc2ccc(-c3ccc(NC(=O)Cc4ccc(F)cc4)cc3)cn2n1 [reference compound]	–	17	–	–	–	–	–
COc1cc(S(C)(=O)=O)ccc1Nc1nc2ccc(-c3ccc(NC(=O)Cc4ccc(F)cc4)cc3)cn2n1 [reference compound]	–	10	–	–	–	–	–
N#Cc1ccccc1Nc1nc2ccc(-c3ccc(NC(=O)C(F)(F)c4ccccc4)cc3)cn2n1 [reference compound]	–	–	–	–	27	–	–
CS(=O)(=O)c1ccc(Nc2nc3ccc(-c4ccc(NC(=O)C(CO)c5ccc(F)cc5)cc4)cn3n2)c(OCC(F)(F)F)c1 (single isomer, unassigned) [Example01.10, (−)-2-(4-fluorophenyl)-3-hydroxy-N-[4-(2-{[4-(methylsulfonyl)-2-(2,2,2-tri-fluoroethoxy)phenyl]amino}[1,2,4]triazolo[1,5-a]pyridin-6-yl)phenyl]-propanamide]	>95	>95	> 9.00	–	>95	> 6.70	8.96
COc1cc(C(=O)N2CCC2)ccc1Nc1nc2ccc(-c3ccc(NC(=O)[C@H](C)c4ccc(F)cc4)cc3)cn2n1 [Example01.08, (2R)—N-[4-(2-{[4-(azetidin-1-ylcarbonyl)-2-methoxyphenyl]amino}[1,2,4]-triazolo[1,5-a]pyridin-6-yl)phenyl]-2-(4-fluorophenyl)propanamide]	62	75	> 9.00	> 9.00	74	–	–
COc1ccccc1Nc1nc2ccc(-c3ccc(NC(=O)Cc4ccccc4)cc3)cn2n1 [reference compound]	–	–	–	–	40	–	–
N#Cc1ccccc1Nc1nc2ccc(-c3ccc(NC(=O)C(F)c4ccccc4)cc3)cn2n1 (centres unmarked) [reference compound]	–	–	–	–	26	–	–
COc1cc(S(C)(=O)=O)ccc1Nc1nc2ccc(-c3ccc(NC(=O)[C@H](N)c4ccc(F)cc4)cc3)cn2n1 [Example01.11, (2R)-2-amino-2-(4-fluorophenyl)-N-[4-(2-{[2-methoxy-4-(methylsulfonyl)-phenyl]amino}[1,2,4]triazolo[1,5-a]pyridin-6-yl)phenyl]ethanamide]	76	75	> 9.00	–	92	> 6.22	8.05
COc1cc(C(=O)N2CC(F)C2)ccc1Nc1nc2ccc(-c3ccc(NC(=O)[C@H](C)c4ccc(F)cc4)cc3)cn2n1 [Example 01.07, (2R)-N-{4-[2-({4-[(3-fluoroazetidin-1-yl)carbonyl]-2-methoxyphenyl}amino)-[1,2,4]triazolo[1,5-a]pyridin-6-yl]phenyl}-2-(4-fluorophenyl)propanamide]	>95	86	–	–	83	–	–
COc1cc(C(N)=O)ccc1Nc1nc2ccc(-c3ccc(NC(=O)[C@H](C)c4ccc(F)cc4)cc3)cn2n1 [Example01.05]	>95	89	> 9.00	–	>95	> 7.00	8.92
C[C@@H](C(=O)Nc1ccc(-c2ccc3nc(Nc4ccc(C(N)=O)cc4OCC(F)(F)F)nn3c2)cc1)c1ccc(F)cc1 [Example01.06, 4-{[6-(4-{[(2R)-2-(4-fluorophenyl)propanoyl]amino}phenyl)[1,2,4]triazolo-[1,5-a]pyridin-2-yl]amino}-3-(2,2,2-trifluoroethoxyl)benzamide]	>95	81	> 9.00	–	94	> 7.00	8.82

Source: patent publication US9663510B2, “Substituted triazolopyridines and their use as TTK inhibitors” (Bayer Intellectual Property GmbH, priority 2011, dated 2017)
